# Reference: patent publication US20080207683A1, “BIARYL-S[…]-PYRAZOLO-PYRIDINE MODULATORS OF CATHEPSIN S” (priority 2007, published 2008)
# pKi: −log10 of the molar value.
# Target: T1, Human CatS (Homo sapiens, UniProt P25774)
# T1 construct: made in house; host or cells: Sf9 insect cells (baculovirus vector pFB+HT)
# Assay: CatS inhibition of hydrolysis of fluorescent substrate Z-Val-Val-Arg-AFC
# Type: biochemical
# Conditions: apparent Ki, Morrison equation fit of initial rates; 10 μM Z-Val-Val-Arg-AFC, pH 5.0, 1.5 nM CatS; read-out: CatS Ki^app
# Method: Human CatS was cloned into pFB+HT (from Stratagene clone), expressed in Sf9 cells, and purified over a Ni column. Fractions were concentrated and activated at pH 4.0 for 6 hr and then purified over a thiopropylsepharose column and eluted with 1×TBS, 500 mM NaCl, 1 mM EDTA, 25 mM DTT pH 7.6. Glycerol (50%) was added in a 1:1 (vol/vol) ratio (25% glycerol final) and protein was stored at −80° C. in 5 μL aliquots. […] The increase in fluorescence over time was monitored using λexcitation=400 nm and λemission=505 nm.
# In equation 1, v is the initial rate measured in the presence of [I]0, the inhibitor concentration, using an enzyme concentration [E]0. v0 is the initial rate measured in the absence of inhibitor.
# T1 sequence (P25774 115-331): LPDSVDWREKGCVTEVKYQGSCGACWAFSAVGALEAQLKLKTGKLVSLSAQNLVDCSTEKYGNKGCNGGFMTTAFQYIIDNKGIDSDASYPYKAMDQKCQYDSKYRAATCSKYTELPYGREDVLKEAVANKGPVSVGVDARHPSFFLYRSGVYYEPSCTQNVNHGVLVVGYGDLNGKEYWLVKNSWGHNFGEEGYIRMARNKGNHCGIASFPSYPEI
row,Compound,pKi
1,"Cc1ccc2[nH]c(C(C)NC(=O)c3cccc(-c4cc(-c5nn(CCCN6CCCC6)c6c5CN(S(C)(=O)=O)CC6)ccc4Cl)c3)nc2c1 (centres unmarked) [Example 16, 2′-Chloro-5′-[5-methanesulfonyl-1-(3-pyrrolidin-1-yl-propyl)-4,5,6,7-tetrahydro-1H-pyrazolo[4,3-c]pyridin-3-yl]-biphenyl-3-carboxylic acid [1-(5-methyl-1H-benzoimidazol-2-yl)-ethyl]-amide]",7.62
2,"CC(=O)N1CCc2c(c(-c3ccc(Cl)c(-c4cccc(C(=O)N[C@@H](C)c5nc6cc(F)c(F)cc6[nH]5)c4)c3)nn2CCCN2CCCC2)C1 [Example 37, (S)-5′-[5-Acetyl-1-(3-pyrrolidin-1-yl-propyl)-4,5,6,7-tetrahydro-1H-pyrazolo[4,3-c]pyridin-3-yl]-2′-chloro-biphenyl-3-carboxylic acid [1-(5,6-difluoro-1H-benzoimidazol-2-yl)-ethyl]-amide]",7.41
3,"Cc1ccc(NCCNC(=O)c2cccc(-c3cc(-c4nn(CCCN5CCC(O)C5)c5c4CNCC5)ccc3Cl)c2)cc1C (centres unmarked) [Example 42, 2′-Chloro-5′-{1-[3-(3-hydroxy-pyrrolidin-1-yl)-propyl]-4,5,6,7-tetrahydro-1H-pyrazolo[4,3-c]pyridin-3-yl}-biphenyl-3-carboxylic acid [2-(3,4-dimethyl-phenylamino)-ethyl]-amide]",7.38
4,"CS(=O)(=O)N1CCc2c(c(-c3ccc(Cl)c(-c4cccc(C(=O)NCc5nc6ccccc6s5)c4)c3)nn2CCCN2CCC(N3CCCC3=O)CC2)C1 [Example 34, 2′-Chloro-5′-(5-methanesulfonyl-1-{3-[4-(2-oxo-pyrrolidin-1-yl)-piperidin-1-yl]-propyl}-4,5,6,7-tetrahydro-1H-pyrazolo[4,3-c]pyridin-3-yl)-biphenyl-3-carboxylic acid (benzothiazol-2-ylmethyl)-amide]",7.14
5,"CC(C)(C)c1csc(CNC(=O)c2cccc(-c3cc(-c4nn(CCCN5CCCC5)c5c4CN(S(C)(=O)=O)CC5)ccc3Cl)c2)n1 [Example 22, 2′-Chloro-5′-[5-methanesulfonyl-1-(3-pyrrolidin-1-yl-propyl)-4,5,6,7-tetrahydro-1H-pyrazolo[4,3-c]pyridin-3-yl]-biphenyl-3-carboxylic acid (4-tert-butyl-thiazol-2-ylmethyl)-amide]",7.12
